Experimental data as given in PubChem BioAssay (NCI).
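In this assay, cells in 96-well plates receive the compound at five concentrations for 48 hours. Endpoints are linearly interpolated between the surrounding concentrations. Definition used: TGI = concentration required for complete inhibition of growth.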

Assays:
Assay in all cases: NCI-60 cell line screen, 48 h
COLO 205 colon = test system: COLO 205 colon
DLD-1 colon = test system: DLD-1 colon
DMS 114 small cell lung = test system: DMS 114 small cell lung
DMS 273 small cell lung = test system: DMS 273 small cell lung
HCT-15 colon = test system: HCT-15 colon
HL-60(TB) leukemia = test system: HL-60(TB) leukemia
HT29 colon = test system: HT29 colon
M19-MEL melanoma = test system: M19-MEL melanoma
NCI-H23 lung = test system: NCI-H23 lung
SK-MEL-2 melanoma = test system: SK-MEL-2 melanoma
UO-31 renal = test system: UO-31 renal
XF 498 CNS = test system: XF 498 CNS
DU-145 prostate = test system: DU-145 prostate
HS 578T breast = test system: HS 578T breast
MDA-MB-231 breast = test system: MDA-MB-231 breast

Question: With Cn1cnc(SC2=C3C(=O)C=C4S[C@H]5C[C@]42c2c(c(O)c4c6c2=[N+]3CCC=6C=N4)N5)c1CC(N)C(=O)O (some centres undefined) as the compound, how does the TGI (COLO 205 colon) read?
Answer: Its TGI is 4.44 µM.

Question: What about the TGI (DLD-1 colon) of the same compound?
Answer: The TGI was 31.4 µM.

Question: And the TGI (DMS 114 small cell lung)?
Answer: Its TGI is 6.11 µM.

Question: What about the TGI (DMS 273 small cell lung) of the same compound?
Answer: Its TGI is 26 µM.

Question: And the TGI (HCT-15 colon)?
Answer: Its TGI is over 100 µM.

Question: What about the TGI (HL-60(TB) leukemia) of the same compound?
Answer: Its TGI is 38.8 µM.

Question: And the TGI (HT29 colon)?
Answer: The TGI was 17.1 µM.

Question: And the TGI (M19-MEL melanoma)?
Answer: The TGI was 21.5 µM.

Question: And the TGI (NCI-H23 lung)?
Answer: The TGI was 23.8 µM.

Question: And the TGI (SK-MEL-2 melanoma)?
Answer: The TGI was 28.2 µM.

Question: And the TGI (UO-31 renal)?
Answer: The TGI was 37.6 µM.

Question: And the TGI (XF 498 CNS)?
Answer: The TGI was 28.7 µM.

Question: Which TGI (COLO 205 colon) does the source give for O=C(Nc1ccc(Sc2ccc(N=Nc3c(O)c(S(=O)(=O)O)cc4cc(S(=O)(=O)O)ccc34)cc2)cc1)c1ccc(N=Nc2c(O)c(S(=O)(=O)O)cc3cc(S(=O)(=O)O)ccc23)cc1 here?
Answer: Its TGI is 40.2 µM.

Question: And the TGI (DLD-1 colon)?
Answer: Its TGI is over 100 µM.

Question: And the TGI (DMS 114 small cell lung)?
Answer: Its TGI is 42.9 µM.

Question: And the TGI (DMS 273 small cell lung)?
Answer: The TGI was over 100 µM.

Question: What about the TGI (HCT-15 colon) of the same compound?
Answer: Its TGI is 28 µM.

Question: And the TGI (HL-60(TB) leukemia)?
Answer: The TGI was 37.4 µM.

Question: What about the TGI (HT29 colon) of the same compound?
Answer: The TGI was over 100 µM.

Question: And the TGI (M19-MEL melanoma)?
Answer: The TGI was over 100 µM.

Question: And the TGI (NCI-H23 lung)?
Answer: The TGI was 61.2 µM.

Question: And the TGI (SK-MEL-2 melanoma)?
Answer: Its TGI is 96.8 µM.

Question: And the TGI (UO-31 renal)?
Answer: The TGI was over 100 µM.

Question: And the TGI (XF 498 CNS)?
Answer: Its TGI is over 100 µM.

Question: What does the source list for CCCCCCCCCCCCCCCC(=O)OCC1OC(OC)C(NC(=O)N(CCCl)N=O)C(O)C1O (centres undefined)?
Answer: TGI (COLO 205 colon): 47.4 µM; TGI (DLD-1 colon): 37.9 µM; TGI (DMS 114 small cell lung): 46.4 µM; TGI (DMS 273 small cell lung): 25.2 µM; TGI (DU-145 prostate): 92.6 µM; TGI (HCT-15 colon): 35.4 µM; TGI (HL-60(TB) leukemia): 28.3 µM; TGI (HS 578T breast): 63.9 µM; TGI (HT29 colon): 33.7 µM; TGI (M19-MEL melanoma): > 89.6 µM; TGI (MDA-MB-231 breast): 35.5 µM; TGI (NCI-H23 lung): 32 µM; TGI (SK-MEL-2 melanoma): 36.8 µM; TGI (UO-31 renal): 48.9 µM; TGI (XF 498 CNS): 25.7 µM

Question: Which TGI (COLO 205 colon) does the source give for CCOc1ccc(NCC2CC/C(=C\c3ccc(Cl)cc3)C2=O)cc1 (centres undefined) here?
Answer: Its TGI is over 52.5 µM.

Question: What about the TGI (DLD-1 colon) of the same compound?
Answer: Its TGI is 26.6 µM.

Question: What about the TGI (DMS 114 small cell lung) of the same compound?
Answer: Its TGI is over 58.9 µM.

Question: And the TGI (DMS 273 small cell lung)?
Answer: Its TGI is over 54.1 µM.

Question: What about the TGI (HCT-15 colon) of the same compound?
Answer: The TGI was 23.7 µM.

Question: What about the TGI (HL-60(TB) leukemia) of the same compound?
Answer: The TGI was 37.3 µM.

Question: What about the TGI (HT29 colon) of the same compound?
Answer: The TGI was over 56.2 µM.

Question: And the TGI (M19-MEL melanoma)?
Answer: The TGI was over 58.6 µM.

Question: And the TGI (NCI-H23 lung)?
Answer: The TGI was over 73.4 µM.

Question: What about the TGI (SK-MEL-2 melanoma) of the same compound?
Answer: The TGI was 58.7 µM.

Question: What about the TGI (UO-31 renal) of the same compound?
Answer: Its TGI is over 58.5 µM.

Question: And the TGI (XF 498 CNS)?
Answer: The TGI was 37.1 µM.

Question: For CN(C(=O)C12C3C4C1C1C2C3C41C(O)C(C)(C)C)C(C)(C)C (centres undefined), which TGI (COLO 205 colon) is on record?
Answer: Its TGI is over 100 µM.

Question: And the TGI (DLD-1 colon)?
Answer: The TGI was over 100 µM.

Question: What about the TGI (DMS 114 small cell lung) of the same compound?
Answer: Its TGI is over 100 µM.

Question: And the TGI (DMS 273 small cell lung)?
Answer: Its TGI is over 100 µM.

Question: What about the TGI (HL-60(TB) leukemia) of the same compound?
Answer: The TGI was over 100 µM.

Question: And the TGI (HT29 colon)?
Answer: Its TGI is over 100 µM.

Question: And the TGI (M19-MEL melanoma)?
Answer: Its TGI is over 100 µM.

Question: And the TGI (NCI-H23 lung)?
Answer: Its TGI is over 100 µM.

Question: And the TGI (SK-MEL-2 melanoma)?
Answer: The TGI was over 100 µM.

Question: And the TGI (UO-31 renal)?
Answer: Its TGI is over 100 µM.

Question: What about the TGI (XF 498 CNS) of the same compound?
Answer: The TGI was over 100 µM.

Question: For c1ccc2c(c1)Sc1ccccc1N2C1CN2CCC1CC2 (centres undefined), which TGI (COLO 205 colon) is on record?
Answer: Its TGI is 34.5 µM.

Question: And the TGI (DLD-1 colon)?
Answer: Its TGI is 29.6 µM.

Question: What about the TGI (DMS 114 small cell lung) of the same compound?
Answer: Its TGI is 35.3 µM.

Question: And the TGI (DMS 273 small cell lung)?
Answer: Its TGI is 30.7 µM.

Question: And the TGI (HCT-15 colon)?
Answer: The TGI was 34 µM.

Question: What about the TGI (HL-60(TB) leukemia) of the same compound?
Answer: The TGI was 32 µM.

Question: And the TGI (HT29 colon)?
Answer: Its TGI is 53.9 µM.

Question: And the TGI (M19-MEL melanoma)?
Answer: The TGI was 29.7 µM.

Question: And the TGI (NCI-H23 lung)?
Answer: The TGI was 74.5 µM.

Question: And the TGI (SK-MEL-2 melanoma)?
Answer: Its TGI is 16.8 µM.

Question: What about the TGI (UO-31 renal) of the same compound?
Answer: The TGI was 39.6 µM.

Question: And the TGI (XF 498 CNS)?
Answer: Its TGI is 28.8 µM.
